# Where two headings read alike, the source gives them in different places.
# Key:
# [1] = test system: secondary alcohol dehydrogenase (SADH); assay: Inhibition of purified secondary alcohol dehydrogenase (SADH); type: biochemical, Pseudomonas sp. ATCC 21439
# Experimental: (§1) Secondary alcohol dehydrogenase (SADH) from an obligate methanol utilizer, Pseudomonas sp. ATCC 21439 was purified as follows. […] 0.05 M sodium phosphate buffer, pH 7.0 with 0.5mM dithiothretol (buffer A) and were disrupted sonically (5×1 min.). The crude extract was separated by centrifugation. The crude extract was heat-treated at 50° C. in a water bath for 10 minutes. The resulting precipitate was removed by centrifugation. To the supernatant solution, 25 ml of protamine sulfate solution (2% solution in 0.1 M Tris base) was added dropwise with continuous stirring. After standing for 30 minutes, the extract was centrifuged. The supernatant solution was fractionated with solid ammonium sulfate. […] This DEAE-cellulose eluate was concentrated by ammonium sulfate fractionation. Material precipitating between 30 and 50% ammonium sulfate saturation was collected by centrifugation and dialyzed overnight against A. This fraction was further washed and filtered through an Amicon unit with XM 50 membrane. The concentrated fraction (6 ml) inside the Amicon unit was applied to an Affi-Gel Blue column (0.8 cm ×18 cm) which had been equilibrated with buffer A for affinity chromatography. The column was washed overnight with buffer A (0.18 ml./min.) and then was eluted with buffer A containing 5 mM NAD. Each 1 ml. fraction was collected.
# (§2) The purified secondary alcohol dehydrogenase enzyme (SADH) may be used directly for converting C3 -C6 secondary alcohols to the corresponding methyl ketones by the procedures described above; however, a source of NAD^+ must be added to the reaction medium. One can determine the NAD-linked secondary alcohol dehydrogenase activity with a fluorescence spectrophotometer (Perkin Elmer, Model MPF 44A) by following the formation of reduced NAD (Ex 340 nm, Em 460 nm). The assay system (3 ml.) will typically contain: sodium phosphate buffer pH 7.0, 150 μmol; NAD 1.0 μmol; a given amount of enzyme preparation; and 20 μmol secondary alcohol. The reaction is started by the addition of secondary alcohol. One unit of SADH enzyme activity represents the reduction of one nmole NAD per minute.
# The effect of metal-chelating agents and thioreagents on the activity of the purified SADH enzyme were studied. […] The possibility of ethanol or n-propanol as an inhibitor was studied.
# [2] = test system: purified secondary alcohol dehydrogenase; assay: Inhibition of purified yeast secondary alcohol dehydrogenase; type: biochemical, Pichia sp. NRRL Y-11,328; conditions: purified yeast enzyme
# Experimental: (§3) Large scale cultures of Pichia sp. NRRL Y-11,328 were grown with aeration at 30° C. in a 14-liter New Brunswick f fermentor in a mineral salt medium containing methanol (0.4%, v/v) as the sole carbon source. The cells (200 g., wet weight) were suspended in 50 mm sodium phosphate buffer, pH 7.0, containing 1 mM dithiothreitol (buffer A), and crude extracts were prepared as described previously. To the crude extracts, 18 ml. of protamine sulfate solution [2% solution in 0.1 M tris (hydroxymethyl) aminomethane (tris) base] was added dropwise with continuous stirring. After standing for 30 min., the extracts were centrifuged at 20,000 x g. for 60 min. The supernatant solution was fractioned with solid ammonium sulfate. Extracts were brought to 50% of saturation with respect to ammonium sulfate by addition of 313 g. of the salt per liter of extract. Precipitated proteins was removed by centrifugation, and 137 g. of ammonium sulfate was added per liter of the supernatant liquid to bring it to 70% of saturation. Material precipitating between 50 and 70% of saturation was collected by centrifugation and dissolved in buffer A. This preparation was dialyzed overnight against buffer A, and the dialyzed material was applied to a DEAE-cellulose column (5×40 cm) that had been equilibrated with buffer A. The sample was washed with 200 ml. of buffer A and eluted with 2 liters of buffer A that contained NaCl in a linear gradient running from a concentration of 0 to 0.5 M. Fractions of 15 ml. were collected. Fractions containing secondary alcohol dehydrogenase activity were pooled and were termed DEAE-cellulose eluate. The DEAE-cellulose eluate was concentrated by ammonium sulfate fractionation.
# (§4) Secondary alcohol dehydrogenase activity was measured spectrophotometrically at 340 nm with a NAD^+ as an electron acceptor. The reaction mixture, in a total 3.0 ml., contained 50 mM phosphate buffer, pH 8.0, 5μmoles NAD^+, crude extracts, and substrate. The reactions were started by addition of 100 μof 0.1 M substrate and the rate of NAD^+ reduction was measured. Protein concentration was determined by the method of Lowry et al.
# Various primary alcohols not oxidized by secondary alcohol dehydrogenase were tested as potential inhibitors of enzyme activity.
# [3] = test system: cell-free particulate fractions derived from the methylotrophic microorganisms; assay: Inhibition of conversion of C3-C6 n-alkanes to sec. alcohols by cell-free particulate fractions; type: biochemical; conditions: oxygen and NADH
# Source text: The conditions for preparing the cell suspensions or the cell-free particulate fractions from methane-grown methylotroph microorganisms is the same as described above.
# [4] = test system: P(40) fraction of Methylosinus sp. (CRL-15, NRRL B-11,202); assay: Effect of inhibitors on propylene epoxidation and methane hydroxylation by P(40) fraction (Table XI); type: biochemical; conditions: inhibitor 10^-3 M
# Experimental: The oxidation of methane and propylene by particulate [(P)40 and (P)80] fractions and soluble [S(80)] fraction was measured at 30° C. by estimating the production of methanol and propylene oxide, respectively. The reaction mixtures contained in 1.0 ml: 150 mM potassium phosphate buffer, pH 7.0 containing 5 mM MgC2, 0.6 ml; 10 μmoles NADH, and cellular fraction.
# Reaction mixtures were contained in 10 ml vials at 4° C. Vials were sealed with rubber caps. The gaseous phase in the vials was removed using vacuum and then was replaced with a gas mixture of methane or propylene and oxygen at a 1:1, v/v ratio. Oxidation of other gaseous n-alkanes and n-alkenes was examined as described above. For liquid substrates, 10 μ of substrate was used directly. Vials were then incubated at 30° C. on a rotary shaker at 200 RPM.
# The products of epoxidation of n-alkenes and hydroxylation of n-alkanes were assayed by flame ionization gas chromatography using a stainless steel column (12'×1/8") packed with 10% Carbowax 20M on 80/100 Chromosorb W and Porapak Q column. The column temperature was maintained isothermally at 120° C. The carrier gas flow rate was 30 ml/min. of helium. The various products were identified by retention time comparisons and co-chromatography with authentic standards.
# It has been reported that the oxidation of methane by cell suspensions of methane-utilizing bacteria was inhibited by various metal-binding or metal-chelating agents (Patel et al., J. Bacteriol. 126: 1017-1019 (1976)). […] (CRL-15, NRRL B-11,202) was examined.
# [5] = test system: secondary alcohol dehydrogenase (SADH); assay: Substrate specificity and Michaelis constants of purified SADH; type: biochemical, Pseudomonas sp. ATCC 21439
# Experimental: as §1, §2
# [6] = test system: purified secondary alcohol dehydrogenase; assay: Substrate and electron acceptor specificity of purified yeast secondary alcohol dehydrogenase; type: biochemical, Pichia sp. NRRL Y-11,328; conditions: for Oxidation by the purified yeast enzyme (in words): examined spectrophotometrically
# Experimental: as §3, §4
# The substrate specificity of the purified secondary alcohol dehydrogenase was examined spectrophotometrically.
# [7] = test system: cell suspensions of the strains of C1-utilizers tested; assay: Production of methyl ketones from secondary alcohols by cell suspensions of C1-utilizers (strains tested); type: cell-based; conditions: for Rate of oxidation of secondary alcohols to methyl ketones: cell suspensions of C1-utilizers; for Inhibition of production of 2-butanone from 2-butanol: cell suspensions of the strains tested
# Source text: The substrate specificity for the oxidation of C3 -C6 secondary alcohols by the strains of C1 -utilizers was studied.
# [8] = inhibitor 1 mM, measured spectrofluorometrically
molecule,measurement,setting,value
[Fe+3] [ferric],% inhibition of SADH activity,[1]; [8],35%
O=[N+]([O-])[O-].[Ag+] [silver nitrate],Inhibition of secondary alcohol dehydrogenase activity (in words),[2],inhibited
O=S(=O)([O-])[O-].[Cu+2] [Cupric Sulfate],Inhibition of secondary alcohol dehydrogenase activity (in words),[2],inhibited
NNC(N)=S [Thiosemicarbazide],Inhibition of conversion of C3-C6 n-alkanes to sec. alcohols (in words),[3],inhibited
same,% inhibition of methane-hydroxylating activity,[4],100%
same,% inhibition of propylene-epoxidizing activity,[4],97%
c1c[nH]cn1 [Imidazole],Inhibition of secondary alcohol dehydrogenase activity (in words),[2],strongly inhibited
[Co+2] [Co^++],% inhibition of SADH activity,[1]; [8],0%
[Ni+2] [nickel],% inhibition of SADH activity,[1]; [8],20%
C=O [formaldehyde],Oxidation by purified SADH (in words),[5],not oxidized
CCCCO [butan-1-ol],Oxidation by the purified yeast enzyme (in words),[6],not oxidized
CCCCCC(C)O (stereo not drawn) [2-heptanol],Oxidation by the purified yeast enzyme (in words),[6],not oxidized
same,Rate of oxidation of secondary alcohols to methyl ketones,[7],much slower rate
CO [methanol],Oxidation by the purified yeast enzyme (in words),[6],not oxidized
CCN1C(=O)C=CC1=O [N-ethylmalemide],% inhibition of SADH activity,[1]; [8],6%
CCCCCCC(C)O (stereo not drawn) [2-octanol],Oxidation by the purified yeast enzyme (in words),[6],not oxidized
Oc1cccc2cccnc12 [8-Hydroxyquinoline],Inhibition of conversion of C3-C6 n-alkanes to sec. alcohols (in words),[3],inhibited
same,% inhibition of methane-hydroxylating activity,[4],80%
same,% inhibition of propylene-epoxidizing activity,[4],75%
NC(N)=S [Thiourea],% inhibition of SADH activity,[1]; [8],0%
same,Inhibition of production of 2-butanone from 2-butanol,[7],not inhibited
same,Inhibition of conversion of C3-C6 n-alkanes to sec. alcohols (in words),[3],inhibited
same,% inhibition of methane-hydroxylating activity,[4],98%
same,% inhibition of propylene-epoxidizing activity,[4],98%
"CCC(O)CO (stereo not drawn) [butane 1,2-diol]",Oxidation by the purified yeast enzyme (in words),[6],not oxidized
same,Oxidation by purified SADH (in words),[5],not oxidized
O=C(O)CI [iodoacetic acid],% inhibition of SADH activity,[1],0%
Oc1ccccc1 [phenol],Oxidation by purified SADH (in words),[5],not oxidized
"CC(O)CCO (stereo not drawn) [butane 1,3-diol]",Oxidation by the purified yeast enzyme (in words),[6],not oxidized
same,Oxidation by purified SADH (in words),[5],oxidized at a lower rate
"CC(O)CO (stereo not drawn) [1,2-propandiol]",Oxidation by the purified yeast enzyme (in words),[6],not oxidized
"c1cnc2c(c1)ccc1cccnc12 [1,10-phenanthroline]",% inhibition of SADH activity,[1]; [8],95%
same,Inhibition of secondary alcohol dehydrogenase activity (in words),[2],strongly inhibited
same,Inhibition of production of 2-butanone from 2-butanol,[7],inhibited
same,Inhibition of conversion of C3-C6 n-alkanes to sec. alcohols (in words),[3],inhibited
same,% inhibition of methane-hydroxylating activity,[4],90%
same,% inhibition of propylene-epoxidizing activity,[4],93%
O=C(O)CCC(=O)O [succinic acid],Oxidation by purified SADH (in words),[5],not oxidized
O=Cc1ccccc1 [benzaldehyde],Oxidation by purified SADH (in words),[5],not oxidized
CC=O [acetaldehyde],Oxidation by purified SADH (in words),[5],oxidized at a lower rate
CCO [ethanol],Oxidation by the purified yeast enzyme (in words),[6],not oxidized
CCCCCO [pentan-1-ol],Oxidation by the purified yeast enzyme (in words),[6],not oxidized
[Zn+2] [Zn^++],% inhibition of SADH activity,[1]; [8],0%
[Mn+2] [Mn^++],% inhibition of SADH activity,[1]; [8],0%
CCCO [n-propanol],Oxidation by the purified yeast enzyme (in words),[6],not oxidized
CCC=O [propanal],Oxidation by purified SADH (in words),[5],oxidized at a lower rate
CCCCC(C)O (stereo not drawn) [2-hexanol],Oxidation by the purified yeast enzyme (in words),[6],catalyzed the oxidation
same,Rate of oxidation of secondary alcohols to methyl ketones,[7],much slower rate
same,Oxidation by purified SADH (in words),[5],oxidized at a lower rate
O=C(O)c1cc[c]([Hg+])cc1.[OH-] [p-hydroxymercuribenzoate],% inhibition of SADH activity,[1]; [8],100%
same,Inhibition of secondary alcohol dehydrogenase activity (in words),[2],strongly inhibited
[Fe+2] [ferrous],% inhibition of SADH activity,[1]; [8],50%
N#C[S][Hg][S]C#N [mercuric thiocyanate],Inhibition of secondary alcohol dehydrogenase activity (in words),[2],inhibited
OC1CCCCC1 [cyclohexanol],Oxidation by purified SADH (in words),[5],oxidized at a lower rate
[Mg+2] [Mg^++],% inhibition of SADH activity,[1]; [8],0%
CC(C)CO [isobutanol],Oxidation by purified SADH (in words),[5],not oxidized
"O=C(O)c1cc(SSc2ccc([N+](=O)[O-])c(C(=O)O)c2)ccc1[N+](=O)[O-] [5,5'-dithiobis(2-nitrobenzoic acid)]",% inhibition of SADH activity,[1]; [8],100%
CCCC(C)O (stereo not drawn) [2-pentanol],Oxidation by the purified yeast enzyme (in words),[6],catalyzed the oxidation
same,Rate of oxidation of secondary alcohols to methyl ketones,[7],much slower rate
same,Oxidation by purified SADH (in words),[5],oxidized at a lower rate
"c1ccc(-c2ccccn2)nc1 [α,α-bipyridyl]",% inhibition of SADH activity,[1]; [8],70%
same,Inhibition of production of 2-butanone from 2-butanol,[7],inhibited
same,Inhibition of conversion of C3-C6 n-alkanes to sec. alcohols (in words),[3],inhibited
same,% inhibition of methane-hydroxylating activity,[4],99%
same,% inhibition of propylene-epoxidizing activity,[4],98%
[Cu+2] [cupric],% inhibition of SADH activity,[1]; [8],25%
cytochrome c: cytochrome c tested as electron carrier [reference compound],Function as electron acceptor/carrier for the purified yeast enzyme,[6]; purified enzyme,could not act as electron carrier
"CC(O)C(C)O (stereo not drawn) [butane 2,3-diol]",Oxidation by purified SADH (in words),[5],oxidized at a lower rate
[N-]=[N+]=[N-] [Sodium azide],% inhibition of SADH activity,[1]; [8],10%
